US20170226518A1, “COMPOSITIONS AND METHODS FOR TREATING CANCER” (Autotelic LLC, priority 2016, published 2017)
In the oligonucleotide strings, read from the 5' end, every base follows the letter of its sugar. An asterisk marks phosphorothioate; unmarked linkages are phosphodiester. Other units and linkages are bracketed, terminal groups are in braces. A string of capitals states the bases alone. d = 2'-deoxy (DNA)

Assay: Phase I/II dose escalation study P-001: safety and tolerability (MTD, DLT, TEAE, SAE), i.v. infusion
Format: in vivo, human
Protocol: Over-expression of transforming growth factor-beta 2 (TGF-β2) is associated with poor prognosis and plays a key role for malignant progression of various tumors by inducing proliferation, metastasis, angiogenesis and immunosuppression. P-001 trial of trabedersen—Safety and Tolerability of AP 12009 (trabedersen), Administered I.V. in Patients With Advanced Tumors Known to Overproduce TGFβ2, was evaluated to determine if treatment with trabedersen primed the tumors to subsequent chemotherapy.
In the instant study, the primary objective was to determine the Maximum Tolerated Dose (MTD) and the Dose Limited Toxicity (DLT) of two cycles of trabedersen administered intravenously (i.v.) for either 7 days every other week (i.e. 7 days on/7 days off) or for 4 days every other week (4 days on/10 days off). The secondary objective included assessment of antitumor activity of trabedersen administered intravenously for either 7 days every other week (i.e. 7 days on/7 days off) or for 4 days every other week (4 days on/10 days off).
The escalation scheme of this study aimed to determinate the MTD of two cycles of trabedersen (so called ‘core study period’) administered as a continuous i.v. infusion for 7 days every other week (7-days-on/7-days-off) or for 4 days every other week (4-days-on/10-days-off).
In general, it was planned to enroll a cohort of at least 3 evaluable patients per treatment group. For each cohort, the safety data obtained until end of the core study period (period for DLT-assessment, Cycle 1 and Cycle 2) were assessed in an interim analysis and evaluated by a Data and Safety Monitoring Board (DSMB). […] If 2 of these 3 patients experienced a DLT, the number of evaluable patients for the subsequent treatment group was increased to 6 for further evaluation of toxicity. Patients who were withdrawn from the study due to adverse events (AEs) attributed to DLT by the treating clinician, were not replaced but were used to determine the MTD and to evaluate the safety of the study drug. If patients were withdrawn due to other reasons, they were replaced until the treatment group was complete.
The MTD was determined according to the following procedure: If 2 out of 3 patients of 1 cohort experienced a DLT, 3 more patients were enrolled in the same treatment group. If at least 1 of these additional 3 patients also met the toxicity criteria for a DLT, the MTD for two cycles was determined; otherwise the dose escalation was continued upon agreement with the DSMB. MTD for two cycles was then defined as the dose at which no more than 2 out of 3, or 2 out of 6 patients of the same treatment group experienced a DLT. This procedure was followed until the MTD was reached.
After dose escalation had been completed, an additional larger cohort of patients was enrolled and treated with a dose of 140 mg/m^2/day employing the 4-days-on/10-days-off schedule, with endorsement by the DSMB. This cohort was to include at least 12 patients with a histologically or cytologically confirmed diagnosis of stage III or IV pancreatic cancer, corresponding to AJCC 1997 stage IVa and IVb, respectively, and at least 12 patients with stage III or IV melanoma.
The safety population comprised of 61 patients, representing all patients for whom at least once a trabedersen infusion was started. According to the protocol, the MTD was determined according to the following procedure: if 2 out of 3 patients of one cohort experience dose-limiting toxicity, 3 more patients were enrolled in the same treatment group. If at least 1 more patient of this second cohort met the toxicity criteria, MTD for two cycles has been determined (otherwise escalation was continued). MTD for two cycles was then defined as the dose at which no more than 2 out of 3 or 2 out of 6 patients of the same treatment group experienced DLT. […] In the case that 2 patients of the first cohort experienced DLTs that clearly indicated attainment of the MTD, the second cohort could also be omitted. […]

[1] = 4-days-on and 10-days-off schedule
[2] = 4-days-on, 10-daysoff schedule (N = 44)
[3] = 7-days-on and 7-days-off schedule
[4] = 7-days-on, 7-daysoff schedule (N = 17)

In the case of “trabedersen: TGFβ2 specific phosphorothioate antisense oligodeoxynucleotide with the sequence 5′-CGGCATGTCTATTTTGTA-3′ (SEQ ID No: 1) (antisense dC*dG*dG*dC*dA*dT*dG*dT*dC*dT*dA*dT*dT*dT*dT*dG*dT*dA)”, the DLT observed (140 mg/m^2/day, 4-days-on and 10-days-off schedule, one patient) was “dose-limiting Grade 3 upper gastrointestinal hemorrhage”, the “patients who experienced a DLT” value (240 mg/m^2/day, 7-days-on and 7-days-off, 2 Grade 3 thrombocytopenia, 1 Grade 3 maculopapular rash) was 3 patients and the “frequency of patients with TEAEs that led to treatment discontinuation” value (“frequency of patients” below) [1] was 15.9%. For the same substance, the “patients with TEAEs that led to treatment discontinuation” value [1] was 7 patients, the “Any SAE: No. (%) of patients with SAE” value [2] was 18 (40.9) No. (%) of patients and the “Any SAE: No. of SAEs” value [2] was 28 No. of SAEs. The “Ascites: No. (%) of patients with SAE” value [2] was 0 No. (%) of patients, the “Cancer Pain: No. (%) of patients with SAE” value (“Cancer Pain: No. (%)” for short) [2] was 2 (4.5) No. (%) of patients and the “Cancer Pain: No. of SAEs” value [2] was 2 No. of SAEs. The “Catheter related Infection: No. (%) of patients with SAE” value (shortened to “Catheter related Infection: No. (%)”) [2] was 1 (2.3) No. (%) of patients, the “Catheter related Infection: No. of SAEs” value [2] was 1 No. of SAEs and the “Cholangitis: No. (%) of patients with SAE” value (shortened to “Cholangitis: No. (%)”) [2] was 3 (6.8) No. (%) of patients. For the same substance, the “Cholangitis: No. of SAEs” value [2] was 3 No. of SAEs, the “Cholestasis: No. (%) of patients with SAE” value (“Cholestasis: No. (%)” below) [2] was 1 (2.3) No. (%) of patients and the “Cholestasis: No. of SAEs” value [2] was 1 No. of SAEs. The “GI hemorrhage: No. (%) of patients with SAE” value [2] was 1 (2.3) No. (%) of patients, the “GI hemorrhage: No. of SAEs” value [2] was 2 No. of SAEs and the “Pneumonia: No. (%) of patients with SAE” value [2] was 0 No. (%) of patients. The “Upper GI hemorrhage: No. (%) of patients with SAE” value (from here on “Upper GI hemorrhage: No. (%)”) [2] was 1 (2.3) No. (%) of patients, the “Upper GI hemorrhage: No. of SAEs” value [2] was 1 No. of SAEs and the “frequency of patients” value [3] was 41.2%. The “patients with TEAEs that led to treatment discontinuation” value [3] was 7 patients, the “daily dose of MTD” value (7-days-on and 7-days-off schedule, approx.) was “approx. 4 mg/kg/day” and the “Any SAE: No. (%) of patients with SAE” value [4] was 12 (70.6) No. (%) of patients. The “Any SAE: No. of SAEs” value [4] was 28 No. of SAEs, the “Ascites: No. (%) of patients with SAE” value [4] was 3 (17.6) No. (%) of patients and the “Ascites: No. of SAEs” value [4] was 3 No. of SAEs. For the same substance, the “Cancer Pain: No. (%)” value [4] was 0 No. (%) of patients, the “Catheter related Infection: No. (%)” value [4] was 2 (11.8) No. (%) of patients and the “Catheter related Infection: No. of SAEs” value [4] was 2 No. of SAEs. For the same substance, the “Cholangitis: No. (%)” value [4] was 1 (5.9) No. (%) of patients, the “Cholangitis: No. of SAEs” value [4] was 1 No. of SAEs and the “Cholestasis: No. (%)” value [4] was 1 (5.9) No. (%) of patients. For the same substance, the “Cholestasis: No. of SAEs” value [4] was 1 No. of SAEs, the “GI hemorrhage: No. (%) of patients with SAE” value [4] was 2 (11.8) No. (%) of patients and the “GI hemorrhage: No. of SAEs” value [4] was 3 No. of SAEs. For the same substance, the “Pneumonia: No. (%) of patients with SAE” value [4] was 3 (17.6) No. (%) of patients, the “Pneumonia: No. of SAEs” value [4] was 3 No. of SAEs and the “Upper GI hemorrhage: No. (%)” value [4] was 1 (5.9) No. (%) of patients. For the same substance, the “Upper GI hemorrhage: No. of SAEs” value [4] was 1 No. of SAEs, the “Maximum Tolerated Dose (MTD)” value (4 days on and 10 days off regimen, MTD not reached at highest dose tested) was > 330 mg/m^2/d and the “Maximum Tolerated Dose (MTD)” value (7 days on and 7 days off regimen, continuous i.v. infusion, two cycles) was 160 mg/m^2/d. For the same substance, the “Any SAE: No. (%) of patients with SAE” value (Total (N = 61)) was 30 (49.2) No. (%) of patients, the “Any SAE: No. of SAEs” value (Total (N = 61)) was 56 No. of SAEs and the “Ascites: No. (%) of patients with SAE” value (Total (N = 61)) was 3 (4.9) No. (%) of patients. For the same substance, the “Ascites: No. of SAEs” value (Total (N = 61)) was 3 No. of SAEs, the “Cancer Pain: No. (%)” value (Total (N = 61)) was 2 (3.3) No. (%) of patients and the “Cancer Pain: No. of SAEs” value (Total (N = 61)) was 2 No. of SAEs. For the same substance, the “Catheter related Infection: No. (%)” value (Total (N = 61)) was 3 (4.9) No. (%) of patients, the “Catheter related Infection: No. of SAEs” value (Total (N = 61)) was 3 No. of SAEs and the “Cholangitis: No. (%)” value (Total (N = 61)) was 4 (6.6) No. (%) of patients. The “Cholangitis: No. of SAEs” value (Total (N = 61)) was 4 No. of SAEs, the “Cholestasis: No. (%)” value (Total (N = 61)) was 2 (3.3) No. (%) of patients and the “Cholestasis: No. of SAEs” value (Total (N = 61)) was 2 No. of SAEs. For the same substance, the “GI hemorrhage: No. (%) of patients with SAE” value (Total (N = 61)) was 3 (4.9) No. (%) of patients, the “GI hemorrhage: No. of SAEs” value (Total (N = 61)) was 3 No. of SAEs and the “Pneumonia: No. (%) of patients with SAE” value (Total (N = 61)) was 3 (4.9) No. (%) of patients. The “Pneumonia: No. of SAEs” value (Total (N = 61)) was 3 No. of SAEs, the “Upper GI hemorrhage: No. (%)” value (Total (N = 61)) was 2 (3.3) No. (%) of patients and the “Upper GI hemorrhage: No. of SAEs” value (Total (N = 61)) was 2 No. of SAEs. The “frequency of patients” value (all patients) was 23.0%, the “patients with TEAEs that led to treatment discontinuation” value (all patients) was 14 patients and the “total of TEAEs that led to treatment discontinuation” value (all patients) was 23 TEAEs. The “frequency of patients” value (colorectal cancer) was 40.0%, the “patients with TEAEs that led to treatment discontinuation” value (colorectal cancer) was 2 patients and the “frequency of patients” value (melanoma) was 15.8%. The “patients with TEAEs that led to treatment discontinuation” value (melanoma) was 3 patients, the “frequency of patients” value (pancreatic cancer) was 24.3% and the “patients with TEAEs that led to treatment discontinuation” value (pancreatic cancer) was 9 patients. The “patients for whom a DLT was proclaimed” value (whole study: 2 pancreatic carcinoma, 2 colorectal cancer) was 4 patients.
